The record followed here is US20220112187A1, “PYRAZOLOPYRIDINE AMINE COMPOUNDS FOR THE TREATMENT OF AUTOIMMUNE DISEASE” (Hoffmann-La Roche Inc., priority 2018, published 2022).

The assay concerns the target T1, human TLR7 (Homo sapiens, UniProt Q9NYK1).
T1 sequence (Q9NYK1 27-1049): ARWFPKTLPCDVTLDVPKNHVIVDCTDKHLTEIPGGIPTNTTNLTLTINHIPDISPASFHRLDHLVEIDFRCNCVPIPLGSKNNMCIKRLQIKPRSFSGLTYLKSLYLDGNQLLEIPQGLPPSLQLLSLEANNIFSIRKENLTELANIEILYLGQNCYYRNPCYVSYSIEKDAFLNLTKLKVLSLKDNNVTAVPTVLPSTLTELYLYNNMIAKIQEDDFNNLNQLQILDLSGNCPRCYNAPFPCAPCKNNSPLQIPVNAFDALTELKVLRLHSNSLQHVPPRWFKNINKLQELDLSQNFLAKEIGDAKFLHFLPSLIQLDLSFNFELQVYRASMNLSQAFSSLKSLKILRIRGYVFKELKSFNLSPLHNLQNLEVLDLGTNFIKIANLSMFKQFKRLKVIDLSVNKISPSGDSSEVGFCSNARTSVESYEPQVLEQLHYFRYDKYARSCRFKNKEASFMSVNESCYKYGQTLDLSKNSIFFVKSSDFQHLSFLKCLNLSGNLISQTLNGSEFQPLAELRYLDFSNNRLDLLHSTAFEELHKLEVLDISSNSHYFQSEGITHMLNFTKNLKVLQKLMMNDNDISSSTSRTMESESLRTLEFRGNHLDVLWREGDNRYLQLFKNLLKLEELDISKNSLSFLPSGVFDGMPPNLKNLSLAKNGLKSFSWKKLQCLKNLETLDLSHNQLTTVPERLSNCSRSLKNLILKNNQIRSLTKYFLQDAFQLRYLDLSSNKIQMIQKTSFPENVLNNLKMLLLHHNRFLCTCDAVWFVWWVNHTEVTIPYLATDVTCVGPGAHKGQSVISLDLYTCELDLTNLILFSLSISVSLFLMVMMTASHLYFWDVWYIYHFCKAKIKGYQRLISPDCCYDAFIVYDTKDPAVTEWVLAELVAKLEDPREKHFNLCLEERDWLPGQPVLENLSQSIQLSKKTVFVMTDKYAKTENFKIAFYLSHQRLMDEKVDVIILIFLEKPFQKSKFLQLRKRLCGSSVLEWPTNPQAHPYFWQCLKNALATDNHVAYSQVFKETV
The assay is described as follows: HEK293-Blue-hTLR-7 cells assay (SEAP reporter, R848 stimulation). The conditions noted are these: HEK293-Blue-hTLR7 cells, R848 ligand, 20 hrs incubation. The assay is classed as cell-based. The source says:
A stable HEK293-Blue-hTLR-7 cell line was purchased from InvivoGen (Cat. #: hkb-htlr7, San Diego, Calif., USA). These cells were originally designed for studying the stimulation of human TLR7 by monitoring the activation of NF-κB. A SEAP (secreted embryonic alkaline phosphatase) reporter gene was placed under the control of the IFN-β minimal promoter fused to five NF-κB and AP-1-binding sites. The SEAP was induced by activating NF-κB and AP-1 via stimulating HEK-Blue hTLR7 cells with TLR7 ligands. Therefore the reporter expression was declined by TLR7 antagonist under the stimulation of a ligand, such as R848 (Resiquimod), for incubation of 20 hrs. The cell culture supernatant SEAP reporter activity was determined using QUANTI-Blue™ kit (Cat. #: rep-qb1, Invivogen, San Diego, Ca, USA) at a wavelength of 640 nm, a detection medium that turns purple or blue in the presence of alkaline phosphatase.
HEK293-Blue-hTLR7 cells were incubated at a density of 250,000˜450,000 cells/mL in a volume of 170 μL in a 96-well plate in Dulbecco's Modified Eagle's medium (DMEM) containing 4.5 g/L glucose, 50 U/mL penicillin, […], […], 2 mM L-glutamine, 10% (v/v) heat-inactivated fetal bovine serum with addition of 20 μL test compound in a serial dilution in the presence of final DMSO at 1% and 10 μL of 20 uM R848 in above DMEM, perform incubation under 37° C. in a CO2 incubator for 20 hrs. Then 20 μL of the supernatant from each well was incubated with 180 μL Quanti-blue substrate solution at 37° C. for 2 hrs and the absorbance was read at 620˜655 nm using a spectrophotometer. The signalling pathway that TLR7 activation leads to downstream NF-κB activation has been widely accepted, and therefore similar reporter assay was modified for evaluating TLR7 antagonist.
For the compound `C[C@@H]1CN(c2ccc(C#N)n3nccc23)C[C@H](CN2CCC(N3CCN(C)CC3)CC2)O1` [Example 1, 4-[(2R,6S)-2-methyl-6-[[4-(4-methylpiperazin-1-yl)-1-piperidyl]methyl]morpholin-4-yl]pyrazolo[1,5-a]pyridine-7-carbonitrile], the 50% inhibitory concentration (IC50) amounted to 0.095 µM.

Turning to `C[C@@H]1CN(c2ccc(C#N)n3ncc(F)c23)C[C@H](CN2CCCC3(CCNC3)C2)O1` (stereo partly drawn) [Example 68, 3-fluoro-4-[(2S,6R)-2-(2,7-diazaspiro[4.5]decan-7-ylmethyl)-6-methyl-morpholin-4-yl]pyrazolo[1,5-a]pyridine-7-carbonitrile], half-maximal inhibition (IC50) required 0.23 µM. Against the preceding compound, the IC50 is about 2.4-fold higher.

Turning to `CC1CNCCN1C[C@H]1CN(c2ccc(C#N)n3nccc23)C[C@@H](C)O1` (single isomer, unassigned) [Example 50B], it took 0.14 µM to reach half-maximal inhibition (IC50).

Turning to `C[C@@H]1CN(c2ccc(C#N)n3nccc23)C[C@H](CN2CC3CCNCC32)O1` (stereo partly drawn) [Example 56, 4-[(2S,6R)-2-(3,8-diazabicyclo[4.2.0]octan-8-ylmethyl)-6-methyl-morpholin-4-yl]pyrazolo[1,5-a]pyridine-7-carbonitrile], the IC50 is 0.27 µM.

`C[C@@H]1CN(c2ccc(C#N)n3nccc23)C[C@H](CN2CC[C@@H]3CNCC32)O1` (stereo partly drawn) [Example 62, 4-[(2R,6S)-2-methyl-6-[[cis-(3aR,6aR)-3,3a,4,5,6,6a-hexahydro-2H-pyrrolo[3,4-b]pyrrol-1-yl]methyl]morpholin-4-yl]pyrazolo[1,5-a]pyridine-7-carbonitrile] gave an IC50 of 0.71 µM.

`C[C@@H]1CN(c2ccc(C#N)n3nccc23)C[C@H](CN2CCC3(CCNCC3)CC2)O1` [Example 3, 4-[(2S,6R)-2-(3,9-diazaspiro[5.5]undecan-3-ylmethyl)-6-methyl-morpholin-4-yl]pyrazolo[1,5-a]pyridine-7-carbonitrile] showed an IC50 of 0.24 µM.

Compound `C[C@@H]1CN(c2ccc(C#N)n3nccc23)C[C@H](CN2CCC3(CCNC3)C2)O1` (stereo partly drawn) [Example 6, 4-[(2S,6R)-2-(2,7-diazaspiro[4.4]nonan-2-ylmethyl)-6-methyl-morpholin-4-yl]pyrazolo[1,5-a]pyridine-7-carbonitrile] came in with an IC50 of 0.2 µM.

Turning to `C[C@@H]1CN(c2ccc(C#N)n3nccc23)C[C@H](CN2CC[C@H](N)[C@H](C)C2)O1` [Example 74, 4-[(2S,6R)-2-[[(3R,4S)-4-amino-3-methyl-1-piperidyl]methyl]-6-methyl-morpholin-4-yl]pyrazolo[1,5-a]pyridine-7-carbonitrile], 0.089 µM corresponded to half-maximal inhibition (IC50).

The compound `C[C@@H]1CN(c2ccc(C#N)n3nccc23)C[C@H](CN2CCC3(CN(C)CCO3)C2)O1` (stereo partly drawn) [Example 76, 4-[(2R,6S)-2-methyl-6-[(9-methyl-6-oxa-2,9-diazaspiro[4.5]decan-2-yl)methyl]morpholin-4-yl]pyrazolo[1,5-a]pyridine-7-carbonitrile] displayed an IC50 of 0.92 µM. Against the preceding compound, the IC50 is about 10-fold higher.

Compound `C[C@@H]1CN(c2ccc(C#N)n3nccc23)C[C@H](CN2CCC(CCN)CC2)O1` [Example 13, 4-[(2S,6R)-2-[[4-(2-aminoethyl)-1-piperidyl]methyl]-6-methyl-morpholin-4-yl]pyrazolo[1,5-a]pyridine-7-carbonitrile] registered an IC50 of 0.4 µM.

Compound `C[C@@H]1CN(c2ccc(C#N)n3ncc(F)c23)C[C@H](CN2CCCC3(CCNCC3)C2)O1` [Example 67, 4-[(2S,6R)-2-(2,9-diazaspiro[5.5]undecan-2-ylmethyl)-6-methyl-morpholin-4-yl]-3-fluoro-pyrazolo[1,5-a]pyridine-7-carbonitrile] came in with a concentration for half-maximal inhibition (IC50) of 0.28 µM.

As to `C[C@@H]1CN(c2ccc(C#N)n3nccc23)C[C@H](CN2CCC(N)CC2)O1` [Example 17, 4-[(2S,6R)-2-[(4-amino-1-piperidyl)methyl]-6-methyl-morpholin-4-yl]pyrazolo[1,5-a]pyridine-7-carbonitrile], the IC50 stood at 0.089 µM.

Compound `C[C@@H]1CN(c2ccc(C#N)n3nccc23)C[C@H](CN2CCCC3(CCNCC3)C2)O1` [Example 32, 4-[(2S,6R)-2-(2,9-diazaspiro[5.5]undecan-2-ylmethyl)-6-methyl-morpholin-4-yl]pyrazolo[1,5-a]pyridine-7-carbonitrile] yielded an IC50 of 0.41 µM.

The compound `C[C@@H]1CN(c2ccc(C#N)n3nccc23)C[C@H](CN2CCNCC2Cc2ccccc2)O1` (stereo partly drawn) [Example 59, 4-[(2S,6R)-2-[(2-benzylpiperazin-1-yl)methyl]-6-methyl-morpholin-4-yl]pyrazolo[1,5-a]pyridine-7-carbonitrile] returned an IC50 of 0.007 µM.

As to `CC1CC(N)CCN1C[C@H]1CN(c2ccc(C#N)n3nccc23)C[C@@H](C)O1` (stereo partly drawn) [Example 51, 4-[(2S,6R)-2-[(4-amino-2-methyl-1-piperidyl)methyl]-6-methyl-morpholin-4-yl]pyrazolo[1,5-a]pyridine-7-carbonitrile], half-maximal inhibition (IC50) was put at 0.39 µM.

The compound `C[C@@H]1CN(c2ccc(C#N)n3nccc23)C[C@H](CN2C3CNCC2COC3)O1` [Example 57, 4-[(2R,6S)-2-methyl-6-(3-oxa-7,9-diazabicyclo[3.3.1]nonan-9-ylmethyl)morpholin-4-yl]pyrazolo[1,5-a]pyridine-7-carbonitrile] returned an IC50 of 0.073 µM.

Compound `C[C@@H]1CN(c2ccc(C#N)n3nccc23)C[C@H](CN2C3CCCC2CC(N)C3)O1` (stereo partly drawn) [Example 66, Exo-4-[(2S,6R)-2-[(3-amino-9-azabicyclo[3.3.1]nonan-9-yl)methyl]-6-methyl-morpholin-4-yl]pyrazolo[1,5-a]pyridine-7-carbonitrile] displayed an IC50 of 0.49 µM.

Consider `C[C@@H]1CN(c2ccc(C#N)n3nccc23)C[C@H](CN2CC3CCC(C2)C3N)O1` (stereo partly drawn) [Example 36, 4-[(2S,6R)-2-[(8-amino-3-azabicyclo[3.2.1]octan-3-yl)methyl]-6-methyl-morpholin-4-yl]pyrazolo[1,5-a]pyridine-7-carbonitrile], for which the 50% inhibitory concentration (IC50) was 0.038 µM.

Compound `C[C@@H]1CN(c2ccc(C#N)n3nccc23)C[C@H](CN2C3CCCC2CC(N)C3)O1` (stereo partly drawn) [Example 65, Endo-4-[(2S,6R)-2-[(3-amino-9-azabicyclo[3.3.1]nonan-9-yl)methyl]-6-methyl-morpholin-4-yl]pyrazolo[1,5-a]pyridine-7-carbonitrile] returned an IC50 of 0.46 µM.

`C[C@@H]1CN(c2ccc(C#N)n3nccc23)C[C@H](CN2CC3CNCCC32)O1` (stereo partly drawn) [Example 52, 4-[(2S,6R)-2-(3,7-diazabicyclo[4.2.0]octan-7-ylmethyl)-6-methyl-morpholin-4-yl]pyrazolo[1,5-a]pyridine-7-carbonitrile] returned an IC50 of 0.092 µM.

`C[C@@H]1CN(c2ccc(C#N)n3nccc23)C[C@H](CN2CCC3(CCNC3)C2=O)O1` (stereo partly drawn) [Example 21, 4-[(2R,6R)-2-methyl-6-[(1-oxo-2,7-diazaspiro[4.4]nonan-2-yl)methyl]morpholin-4-yl]pyrazolo[1,5-a]pyridine-7-carbonitrile] returned an IC50 of 0.098 µM.

Regarding `CC1CN(C[C@H]2CN(c3ccc(C#N)n4nccc34)C[C@@H](C)O2)CCN1` (stereo partly drawn) [Example 28, 4-[(2R,6S)-2-methyl-6-[(3-methylpiperazin-1-yl)methyl]morpholin-4-yl]pyrazolo[1,5-a]pyridine-7-carbonitrile], the IC50 worked out at 0.044 µM.

`C[C@@H]1CN(c2ccc(C#N)n3nccc23)C[C@H](CN2CCC3(CCCN3)CC2)O1` [Example 53, 4-[(2S,6R)-2-(1,8-diazaspiro[4.5]decan-8-ylmethyl)-6-methyl-morpholin-4-yl]pyrazolo[1,5-a]pyridine-7-carbonitrile] had an IC50 of 0.23 µM. This IC50 is about 5.2-fold higher than that of the compound before.

A word on the IC50: it is the concentration at which inhibition is half-maximal.
